Results on one compound are retold here after patent publication US20140357654A1, “METHODS OF TREATING SCHIZOPHRENIA WITH PHENYLALANINE ENAMIDE DERIVATIVE INHIBITORS OF a4 INTEGRIN POSSESSING A CYCLOBUTENE GROUP” (AESTUS THERAPEUTICS, INC., priority 2011, published 2014).

The test system of the experiment is Male Sprague-Dawley rats. The experiment in a line: Reversal of PCP-induced deficit in prepulse inhibition of the acoustic startle response (PPI). It is filed as in vivo, rat. The conditions noted are these: for reversal of PCP-induced deficit in PPI, percent PPI averaged for all three prepulse intensities: average of 69, 73 and 81 dB, FIG. 2; for reversal of PCP-induced deficit in PPI, percent PPI averaged for all three prepulse intensities / reversal of PCP-induced deficit in PPI: 50 mg/kg p.o., adult male rats; for effect on pre-pulse inhibition: 10 and 50 mg/kg p.o. 45 min before PCP 2.5 mg/kg i.p.; for reversal of PCP-induced deficit in PPI: prepulse intensity 73 dB, FIG. 1. The protocol:
Male Sprague-Dawley rats weighing 210-250 g at time of experiment were used. Animals were housed in a temperature and humidity controlled environment and allowed free access to food and water prior to use.
The amplitude of the inherent startle response varies considerably from animal to animal. The gain of the platforms must be calibrated to ensure that the average startle waveform falls within the desired range. To this end, baseline studies were conducted before the full PPI protocol to allow the calibration of the platforms to be fine-tuned to the startle waveform amplitude. This also allows the animals to become acclimatised to the testing equipment prior to drug administration.
Animals were placed in restraining holders and transferred to the designated chamber. Once all holders were securely fastened to the platform, the Baseline protocol was started. This consists of: • Acclimation Period: Animals were exposed to 5 minutes of 65 decibel (dB) background noise (white noise). • Block 1: 10× startle stimulus alone (white noise, 120 dB, 40 ms) • Block 2: 6× startle stimulus alone • 6× pre-pulse plus startle stimulus (pure tone, 16 dB above background noise, • 20 ms) followed 100 ms later by the startle stimulus. • During this time, the amplitude of the startle responses was recorded. On completion of this protocol, the sensitivity of the equipment was re-calibrated where necessary by adjusting the gain settings.
The same group of rats was again subjected to the Baseline protocol described above. Again, on completion of this protocol, the sensitivity of the equipment was re-calibrated where necessary by adjusting the gain settings. […] These animals were then returned to their home cages for subsequent dosing with compound.
The study compounds were suspended from dry powder stocks in Vehicle (5% Tween 80/5% PEG/saline) and sonicated for 60 minutes at 37° C. to generate suspensions suitable for oral dosing. Control rats received Vehicle by oral gavage. PCP was dissolved in sterile saline (0.9% NaCl).
Rats were dosed with either saline (0.9% NaCl) or 2.5 mg/kg PCP by intraperitoneal injection 15 minutes prior to PPI testing.
(2 S)-2-(2-Bromo-3-oxo-spiro[3.5]non-1-en-1-ylamino)-3-[4-([2,7]naphthyridin-1-ylamino)phenyl]proprionic acid or Clozapine was administered orally by gavage 45 minutes before challenge with PCP or saline. (2S)-2-(2-Bromo-3-oxo-spiro[3.5]non-1-en-1-ylamino)-3-[4-([2,7]naphthyridin-1-ylamino)phenyl]proprionic acid was administered at 10 mg/kg and 50 mg/kg. Clozapine was administered at 5 mg/kg. Vehicle control rats received Vehicle (5% Tween 80/5% PEG/saline) by oral gavage 45 minutes before challenge with PCP or saline.
Exactly 15 minutes after the injection of PCP or saline, the full PPI protocol was started. Animals were exposed to 5 minutes of 65 dB background noise (white noise) as an acclimation period, before the acoustic stimuli began. • Block 1: 6× startle stimulus alone (white noise, 120 dB, 40 ms) • Block 2: 14× startle stimulus • 8× no pulse • 30× pre-pulse (10 each of 4, 8, and 16 dB above the background noise) followed 100 ms later by the startle stimulus. This corresponds to intensities of 69, 73 and 81 dB, respectively. A total of 52 trials were presented to the animals in this block in a pseudo-random order with a variable interval of 8 to 23 seconds, averaging 15 s between trials). • Block 3: 6× startle stimulus alone
Pre-pulse inhibition was calculated from trials in Block 2 by the following formula:
% PPI=(100×[(pulse alone score)−(prepulse+pulse score)]/pulse alone

In the case of `O=C(O)[C@H](Cc1ccc(Nc2nccc3ccncc23)cc1)NC1=C(Br)C(=O)C12CCCCC2` [(2S)-2-(2-Bromo-3-oxo-spiro[3.5]non-1-en-1-ylamino)-3-[4-([2,7]naphthyridin-1-ylamino)phenyl]proprionic acid], the “reversal of PCP-induced deficit in PPI, percent PPI averaged for all three prepulse intensities” value runs as follows: (50 mg/kg) “reversal”; (listed as MGCD-0103, 50 mg/kg) “significantly (p<0.05) reversed”. Moreover, the “effect on pre-pulse inhibition” value (prepulse intensity 69 dB (4 dB above background), rats) was “did not have a statistically significant effect” and the “effect on pre-pulse inhibition” value (prepulse intensity 81 dB (16 dB above background), rats) was “did not have a statistically significant effect”. Besides, where the note is “prepulse intensity 73 dB (8 dB above background), dose not specified (10 and 50 mg/kg p.o. tested), rats”, the “ability to attenuate the PCP-induced deficit in PPI” value is reported as “more evident”. The “reversal of PCP-induced deficit in PPI” value (50 mg/kg) was “reversal” and the “reversal of PCP-induced deficit in PPI” value (listed as MGCD-0103, 50 mg/kg) is listed as “significantly (p<0.05) reversed”.
